Test [1] addresses Bromodomain-containing protein 3 (Homo sapiens, UniProt Q15059). In words: Binding affinity to recombinant human BRD3 bromodomain-1 (44 to 168 residues) expressed in Escherichia coli BL21 (DE3) cells assessed as inhibition constant by fluorescence polarization assay.
Test [2] deals with Histone acetyltransferase p300 (Homo sapiens, UniProt Q09472). As to the kind of experiment: Inhibition of p300 (unknown origin) using [3H]-Ac-CoA as substrate preincubated for 15 mins followed by substrate addition and measured after 60 mins by Flashplate assay.
Histone acetyltransferase p300, sequence (Q09472 whole entry): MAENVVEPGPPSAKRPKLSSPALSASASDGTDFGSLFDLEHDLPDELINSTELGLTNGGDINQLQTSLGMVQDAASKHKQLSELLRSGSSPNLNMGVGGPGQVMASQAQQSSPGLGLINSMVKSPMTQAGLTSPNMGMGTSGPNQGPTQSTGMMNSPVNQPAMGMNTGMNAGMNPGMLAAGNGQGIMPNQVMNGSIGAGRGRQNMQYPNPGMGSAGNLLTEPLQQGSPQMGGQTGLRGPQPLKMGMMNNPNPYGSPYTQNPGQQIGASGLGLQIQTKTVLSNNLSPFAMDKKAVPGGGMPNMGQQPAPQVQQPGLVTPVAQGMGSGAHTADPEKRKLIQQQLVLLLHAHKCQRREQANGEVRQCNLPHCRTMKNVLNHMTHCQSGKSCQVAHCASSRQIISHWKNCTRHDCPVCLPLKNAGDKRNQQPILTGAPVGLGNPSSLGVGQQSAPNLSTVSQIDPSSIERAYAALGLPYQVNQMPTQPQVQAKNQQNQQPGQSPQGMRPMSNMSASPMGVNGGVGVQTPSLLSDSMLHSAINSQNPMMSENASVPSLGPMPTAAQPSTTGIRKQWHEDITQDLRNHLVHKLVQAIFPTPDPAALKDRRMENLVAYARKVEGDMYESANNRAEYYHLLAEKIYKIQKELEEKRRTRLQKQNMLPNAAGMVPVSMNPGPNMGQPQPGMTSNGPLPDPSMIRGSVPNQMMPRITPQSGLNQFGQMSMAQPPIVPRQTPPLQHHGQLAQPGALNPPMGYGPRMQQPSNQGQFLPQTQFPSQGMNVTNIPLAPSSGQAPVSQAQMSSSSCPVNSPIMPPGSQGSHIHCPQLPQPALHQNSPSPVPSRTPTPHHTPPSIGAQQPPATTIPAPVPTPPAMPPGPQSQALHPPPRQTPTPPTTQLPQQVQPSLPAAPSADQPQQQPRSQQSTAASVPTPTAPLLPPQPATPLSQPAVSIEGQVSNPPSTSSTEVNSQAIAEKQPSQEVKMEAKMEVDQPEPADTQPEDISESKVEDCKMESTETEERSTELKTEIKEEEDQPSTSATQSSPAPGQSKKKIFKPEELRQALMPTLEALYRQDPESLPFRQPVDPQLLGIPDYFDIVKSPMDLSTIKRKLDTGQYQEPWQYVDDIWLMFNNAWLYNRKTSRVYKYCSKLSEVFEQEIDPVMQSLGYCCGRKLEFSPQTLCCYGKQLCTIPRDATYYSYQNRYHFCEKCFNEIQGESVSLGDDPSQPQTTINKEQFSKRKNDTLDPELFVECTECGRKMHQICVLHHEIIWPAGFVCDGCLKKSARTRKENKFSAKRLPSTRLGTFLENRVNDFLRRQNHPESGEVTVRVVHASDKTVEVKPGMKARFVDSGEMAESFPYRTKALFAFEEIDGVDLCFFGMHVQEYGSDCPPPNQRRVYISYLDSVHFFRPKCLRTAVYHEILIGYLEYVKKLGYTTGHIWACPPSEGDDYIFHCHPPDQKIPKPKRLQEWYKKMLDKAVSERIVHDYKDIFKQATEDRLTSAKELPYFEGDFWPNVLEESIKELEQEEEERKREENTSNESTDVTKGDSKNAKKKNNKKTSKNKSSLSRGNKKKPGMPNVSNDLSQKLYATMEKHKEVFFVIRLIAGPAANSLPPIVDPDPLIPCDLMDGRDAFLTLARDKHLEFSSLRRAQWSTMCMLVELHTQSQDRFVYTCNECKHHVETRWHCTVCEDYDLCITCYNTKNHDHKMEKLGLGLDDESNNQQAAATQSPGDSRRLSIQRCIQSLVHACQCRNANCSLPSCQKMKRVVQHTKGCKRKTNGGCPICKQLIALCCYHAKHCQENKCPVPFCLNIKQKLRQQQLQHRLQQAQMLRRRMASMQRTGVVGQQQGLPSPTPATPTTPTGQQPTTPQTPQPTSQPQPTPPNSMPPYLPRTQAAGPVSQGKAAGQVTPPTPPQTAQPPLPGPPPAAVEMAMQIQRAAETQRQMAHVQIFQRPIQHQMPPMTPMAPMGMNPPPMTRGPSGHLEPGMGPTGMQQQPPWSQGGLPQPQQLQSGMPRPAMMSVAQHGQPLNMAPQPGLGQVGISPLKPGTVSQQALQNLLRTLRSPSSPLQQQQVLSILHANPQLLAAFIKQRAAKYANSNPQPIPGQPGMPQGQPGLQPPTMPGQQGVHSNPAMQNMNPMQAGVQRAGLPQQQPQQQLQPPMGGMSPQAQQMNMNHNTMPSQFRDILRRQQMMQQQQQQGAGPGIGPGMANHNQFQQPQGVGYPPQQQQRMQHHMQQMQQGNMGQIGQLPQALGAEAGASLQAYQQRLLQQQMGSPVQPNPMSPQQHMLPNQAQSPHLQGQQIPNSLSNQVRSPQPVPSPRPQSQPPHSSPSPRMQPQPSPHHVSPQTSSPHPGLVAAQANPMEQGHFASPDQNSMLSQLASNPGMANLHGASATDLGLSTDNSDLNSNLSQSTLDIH
The target of test [3] is E3 ubiquitin-protein ligase Mdm2 (Homo sapiens, UniProt Q00987). In words: Binding affinity to MDM2 (unknown origin) assessed as dissociation constant.
E3 ubiquitin-protein ligase Mdm2, sequence (Q00987 whole entry): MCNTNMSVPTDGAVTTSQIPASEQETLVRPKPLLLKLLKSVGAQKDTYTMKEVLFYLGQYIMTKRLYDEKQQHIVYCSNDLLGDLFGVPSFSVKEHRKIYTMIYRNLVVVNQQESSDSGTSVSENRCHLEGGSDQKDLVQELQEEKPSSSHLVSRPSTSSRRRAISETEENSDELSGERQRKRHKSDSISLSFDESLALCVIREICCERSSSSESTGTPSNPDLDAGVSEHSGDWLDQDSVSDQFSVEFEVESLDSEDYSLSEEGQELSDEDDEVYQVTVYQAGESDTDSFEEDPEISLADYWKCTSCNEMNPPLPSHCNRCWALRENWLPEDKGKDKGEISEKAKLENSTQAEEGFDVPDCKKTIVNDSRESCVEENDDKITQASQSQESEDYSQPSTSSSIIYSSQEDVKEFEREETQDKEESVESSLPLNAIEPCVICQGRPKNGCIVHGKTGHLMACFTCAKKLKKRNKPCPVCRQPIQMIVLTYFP
The nature of test [4]: Inhibition of Aurora (unknown origin). Further details: species or system Homo sapiens.
The target in test [5] is Transcriptional enhancer factor TEF-3 (Homo sapiens, UniProt Q15561). As to the kind of experiment: Inhibition of YAP binding to human TEAD4 by fluorescence polarization assay.
Transcriptional enhancer factor TEF-3, sequence (Q15561 whole entry): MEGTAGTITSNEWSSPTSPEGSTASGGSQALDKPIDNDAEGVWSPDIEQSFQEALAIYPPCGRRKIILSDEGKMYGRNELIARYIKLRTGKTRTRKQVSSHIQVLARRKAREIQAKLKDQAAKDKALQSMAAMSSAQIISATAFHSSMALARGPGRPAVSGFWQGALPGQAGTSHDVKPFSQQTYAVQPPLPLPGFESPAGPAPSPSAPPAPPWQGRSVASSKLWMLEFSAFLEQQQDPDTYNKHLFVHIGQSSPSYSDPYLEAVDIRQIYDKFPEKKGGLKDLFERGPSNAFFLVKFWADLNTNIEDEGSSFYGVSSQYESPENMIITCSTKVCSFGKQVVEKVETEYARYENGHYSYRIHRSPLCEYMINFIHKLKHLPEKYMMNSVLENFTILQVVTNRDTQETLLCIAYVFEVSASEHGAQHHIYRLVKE

Molecules are shown by their SMILES.

Broadly, the Ki is the dissociation constant of the complex between target and ligand, obtained from inhibition or displacement. The term IC50 denotes the concentration needed to halve the response being measured. A word on the Kd: it is the free concentration of one partner at which half of the binding sites on the other are occupied at equilibrium, for simple one-to-one binding.

Bromodomain-containing protein 3, sequence (Q15059 whole entry, the tested form may be a part): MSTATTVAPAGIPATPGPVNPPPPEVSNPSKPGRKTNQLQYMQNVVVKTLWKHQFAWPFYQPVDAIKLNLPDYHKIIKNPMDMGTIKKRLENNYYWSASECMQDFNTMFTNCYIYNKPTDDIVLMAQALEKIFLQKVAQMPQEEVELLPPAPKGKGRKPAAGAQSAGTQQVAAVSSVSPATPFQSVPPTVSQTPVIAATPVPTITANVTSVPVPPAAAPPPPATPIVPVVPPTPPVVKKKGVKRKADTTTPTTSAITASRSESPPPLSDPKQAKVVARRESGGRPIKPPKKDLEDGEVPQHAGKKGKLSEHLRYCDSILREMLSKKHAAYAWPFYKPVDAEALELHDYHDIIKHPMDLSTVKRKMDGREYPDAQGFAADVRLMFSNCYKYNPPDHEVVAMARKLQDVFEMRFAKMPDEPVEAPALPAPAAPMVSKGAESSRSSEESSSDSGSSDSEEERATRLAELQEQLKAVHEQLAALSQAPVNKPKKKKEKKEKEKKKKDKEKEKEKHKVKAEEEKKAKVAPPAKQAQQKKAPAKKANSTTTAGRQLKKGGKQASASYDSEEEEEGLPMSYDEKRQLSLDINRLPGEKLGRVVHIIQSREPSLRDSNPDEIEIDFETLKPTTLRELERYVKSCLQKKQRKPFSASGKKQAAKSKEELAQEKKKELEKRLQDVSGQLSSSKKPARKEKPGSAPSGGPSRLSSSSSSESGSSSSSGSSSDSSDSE

`COc1cc(/C=C/C(=O)Nc2ccc3c(c2)C2(C(=O)N3)C(C(=O)OC(C)(C)C)CC3CSCN32)cc(OC)c1OC` (stereo not given): the inhibitory constant (Ki) in test [1] was 0.131 µM.
As for `COC(=O)C1CC2CSCN2C12C(=O)Nc1ccc(NCc3ccc([N+](=O)[O-])cc3OCC(=O)O)cc12` (stereo not given), 45 µM corresponded to half-maximal inhibition in test [2] (IC50).
Take `Cc1ccc(NC(=O)Cn2cc(CN(C(=O)CCC(=O)OC(C)(C)C)C(C(=O)NC3CCCCC3)c3c[nH]c4cc(Cl)ccc34)nn2)c(C)c1` (stereo not given): the dissociation constant (Kd) in test [3] was 33 µM.
`CC(C)(C)OC(=O)C1CC2CSCN2C12C(=O)Nc1cc(-c3ccc4c(c3)CC(=O)N4)ccc12` (stereo not given) displayed an IC50 in test [4] of 45 µM.
`Cc1ccn2cc(Cn3cc(CN(C(=O)CCC(=O)OC(C)(C)C)C(C(=O)NC4C[C@@H]5CC[C@]4(C)C5(C)C)c4c[nH]c5cc(Cl)ccc45)nn3)nc2c1` (stereo not given in full): the half-inhibitory concentration (IC50) in test [5] was 0.51 µM.

Values taken from ChEMBL document CHEMBL5214903, “Diversity-oriented synthesis as a tool to expand the chemical space of DNA-encoded libraries” (Bioorg Med Chem, 2021).
